For the assay, the system named is dogs. The assay can be described thus: Example 2: success at learning the discrimination task (Test B) after twenty two days on the assigned diet. Type of assay: in vivo. Conditions: 0.3% amino acid added to control food product with approximately 2% leucine.

Procedure: The baseline learning capability of each dog was determined in a discrimination task (Test A) allowing the dogs to be divided into two groups, slow and fast learners. The slow and fast learners were randomly assigned to diet A, B, C or D. Dogs remained on their assigned diet for a period of twenty two days and their learning capability was then re evaluated with another discrimination task (Test B). The time to successfully learn the discrimination task, the total number of discrimination attempts, and the proportion of correct responses by each dog was recorded.
Test B was introduced in stages in a similar way to Test A. Again each dog was in the test area for up to an hour depending on the length of time that it took for the dog to complete the task.
Stage 1 The food preference test was repeated where necessary.
Stage 2 The dog was taken down the side of each box and encouraged to enter the food drop area from the rear by throwing food forward into the area.
Stage 3 The handler stood in front of one of the boxes and encouraged the dog to go down the side and into the box on its own. As its head reached the end of the entrance passage food was dropped by hand over the front panel into the area. This was repeated at random with both boxes.
Stage 4 The dog was placed centrally about 2.5 m back from the boxes and a red light was activated. The handler walked forward towards the light encouraging the dog to go forward along the side passage and into the box alone where a food pellet was dropped through the hatch as the dog's head reached the end of the entrance passage.
Stage 5 The dog was placed centrally approximately 3 m away from the equipment. A light was activated and the dog allowed time to scan the equipment. The dog was then released to make its own decision about which box to approach. If and when it entered the correct box a food pellet was dropped into the area.
These five introductory stages took, on average, 20 minutes, depending on the initial reaction of the dog to the surroundings. […]

`CC[C@H](C)[C@H](N)C(=O)O` [isoleucine]: the “improvement in canine learning” value is “Statistically significant improvements in canine learning were not demonstrated”.
Under `CC(C)C[C@H](N)C(=O)O` [leucine] stands “measurable improvement in canine learning”; under `N[C@@H](Cc1c[nH]c2ccccc12)C(=O)O` [tryptophan], “Statistically significant improvements in canine learning were not demonstrated”.

Source of the values: US20090298942A1, “ANIMAL COMPOSITION” (priority 2002, published 2009).
